Test results taken from patent publication US10351534B2, “Use of 3-carboxy-N-ethyl-N,N-dimethylpropan-1-aminium salts in the treatment of cardiovascular disease” (JSC GRINDEKS, priority 2011, dated 2019).
Marks after values point to notes of the source that are not given here.

Legend:
isolated rat heart = assay: Isolated rat heart infarction study (after p.o. treatment); format: in vivo; conditions: for Infarct size, % of control: 20 mg/kg p.o. daily, isolated Wistar rat heart, 60 min occlusion, 150-min reperfusion, mean±s.e.m. of 9-10 animals; for decrease of infarct size: 20 mg/kg p.o., isolated rat heart infarction model, versus control
Method: Fifty male, 10 weeks old Wistar rats weighing 200-250 g were housed under standard conditions (21-23° C., 12 h light-dark cycle) with unlimited access to food (R3 diet, Lactamin AB, Sweden) and water.
Rats were adapted to local conditions for two weeks before the start of treatment. Meldonium dihydrate at a dose of 20 mg/kg, gamma-butyrobetaine at a dose of 20 mg/kg and 3-carboxy-N-ethyl-N,N-dimethylpropan-1-aminium salts at dose of 20 mg/kg were administered p.o. daily for 8 weeks. Control rats received water.
The isolated rat heart experiment was performed essentially as described earlier (Liepinsh et al., J. Cardiovasc. Pharmacol. 2006; 48(6):314-9). Twenty-four hours after the last drug administration hearts were excised and retrogradely perfused via the aorta at a constant pressure with oxygenated Krebs-Henseleit buffer at 37° C. The heart rate, left ventricle end-diastolic pressure and left ventricle developed pressure were continuously recorded. Coronary flow was measured using an ultrasound flow detector (HSE) and the PowerLab 8/30 system from ADInstruments. The hearts were perfused for 20 min to stabilize the hemodynamic functions and then occlusion was performed for 60 min by constricting threads through a plastic tube. Successful occlusion was confirmed by a coronary flow decrease of about 40 percent. Reperfusion was achieved by releasing the threads. At the end of the 150-min reperfusion period, the risk zone was delineated with 0.1% methylene blue. The hearts were then sectioned transversely from the apex to the base in five slices 2 mm in thickness and incubated in 1% triphenyltetrazolium chloride in phosphate buffer (pH 7.4, 37° C.) for 10 min to stain viable tissue red and necrotic tissue white. Computerized planemetric analysis of Sony A900 photographs was performed using Image-Pro Plus 6.3 software to determine the area at risk and area of necrosis expressed as a % of the left ventricle. The obtained values were then used to calculate the infarct size (IS) as a % of risk area according to the formula: Infarct Size=Area of Necrosis/Area at Risk×100%.
The anti-infarction effect of examined substances was investigated in an isolated rat heart infarction model. During occlusion of left coronary artery, the coronary flow in all experimental groups was decreased for 40% (from 11 ml/min to 7 ml/min). Moreover, the drop of developed left ventricular pressure for 50% was observed. […] In reperfusion stage, coronary flow, developed left ventricular pressure, ±dp/dt values were recovered till about 80% of control level. There were no significant differences between control and treatment groups.

[1] = s.c.; cited from earlier work

Row | Molecule | Infarct size, % of control (isolated rat heart) | decrease of infarct size (isolated rat heart) | LD50 [1]
1 | 3-carboxy-N-ethyl-N,N-dimethylpropan-1-aminium 2-(acetyloxy)benzoate | 61.6 ± 6.7*^,#,$ % of control | 38.4% | 
2 | CC[N+](C)(C)CCCC(=O)O.O=C([O-])c1cc(=O)[nH]c(=O)[nH]1 [3-carboxy-N-ethyl-N,N-dimethylpropan-1-aminium 2,6-dioxo-1,2,3,6-tetrahydropyrimidine-4-carboxylate] | 60.6 ± 6.7*^,#,$ % of control | 39.4% | 
3 | CC[N+](C)(C)CCCC(=O)O [3-carboxy-N-ethyl-N,N-dimethylpropan-1-aminium dihydrogen phosphate] | 56.1 ± 4.4*^,#,$ % of control | 43.9% | 
4 | C[N+](C)(C)NCCC(=O)[O-] [Meldonium dihydrate, 3-(2,2,2-Trimethylhydrazinium) propionate dihydrate, reference compound] | 117.9 ± 7.9 % of control |  | 
5 | CC[N+](C)(C)CCCC(=O)O.O=C([O-])/C=C/C(=O)O [3-carboxy-N-ethyl-N,N-dimethylpropan-1-aminium (2E)-3-carboxyacrylate] | 46.5 ± 7.0*^,#,$ % of control | 53.5% | 
6 | C[N+](C)(C)CCCC(=O)[O-] [Gamma-butyrobetaine, γ-Butyrobetaine, reference compound] | 87.6 ± 11.4 % of control | 12.4% | > 7000 mg/kg
7 | CC[N+](C)(C)CCCC(=O)O.O=C([O-])CCC(=O)O [3-carboxy-N-ethyl-N,N-dimethylpropan-1-aminium 3-carboxypropanoate] | 62.9 ± 4.7*^,#,$ % of control | 37.1% | 
